Measurements: ChEMBL document CHEMBL1208774, “3-D-QSAR and docking studies on the neuronal choline transporter” (Bioorg Med Chem Lett, 2010)
Residue numbers refer to the chain shown, from its start.

Target: T1, High affinity choline transporter 1 (Rattus norvegicus, UniProt Q9JMD7)
T1 sequence (Q9JMD7 whole entry): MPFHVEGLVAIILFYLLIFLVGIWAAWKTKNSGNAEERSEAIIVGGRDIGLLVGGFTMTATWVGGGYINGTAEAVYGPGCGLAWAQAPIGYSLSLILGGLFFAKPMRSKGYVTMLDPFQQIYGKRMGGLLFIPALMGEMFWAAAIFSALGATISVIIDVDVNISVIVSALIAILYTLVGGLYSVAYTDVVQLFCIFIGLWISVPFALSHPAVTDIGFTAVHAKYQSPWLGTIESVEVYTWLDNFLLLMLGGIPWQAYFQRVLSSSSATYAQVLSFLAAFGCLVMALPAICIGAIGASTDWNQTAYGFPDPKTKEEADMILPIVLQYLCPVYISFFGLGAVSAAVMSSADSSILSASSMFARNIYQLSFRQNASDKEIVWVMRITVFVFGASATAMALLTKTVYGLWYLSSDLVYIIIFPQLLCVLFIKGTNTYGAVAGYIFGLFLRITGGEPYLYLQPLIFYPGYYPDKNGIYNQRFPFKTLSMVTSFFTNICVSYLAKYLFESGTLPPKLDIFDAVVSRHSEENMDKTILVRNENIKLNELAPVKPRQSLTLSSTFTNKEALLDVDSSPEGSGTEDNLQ
Assay: Binding affinity to rat choline transporter 1

For `C[N+]1(C)CCO[C@@](O)(c2ccc(-c3ccc([C@@]4(O)C[N+](C)(C)CCO4)cc3)cc2)C1` [HEMICHOLINIUM DIBROMIDE], which Ki is on record?
Its Ki is 0.01 µM.

Target: T2, High affinity choline transporter 1 (Mus musculus, UniProt Q8BGY9)
T2 sequence (Q8BGY9 whole entry): T1 sequence (Q9JMD7 whole entry) with P2S, A35P, F307Y, F386L, P467S, I513V, S519A
Assay: Inhibition of [3H]choline uptake at choline transporter 1 in mouse brain synaptosome
Type: tissue-based

For `CNCCO`, which Ki is on record?
Its Ki is 3800 µM.

Which Ki does the source give for `C[N+](C)(C)c1ccccc1` here?
The Ki was 75.2 µM.

Which Ki does the source give for `C[N+](C)(C)CCCO` here?
The Ki was 2.2 µM.

Which Ki does the source give for `C[N+](C)(C)CCCCO` here?
The Ki was 310 µM.

With `CN(C)CCCO` as the compound, how does the Ki read?
Its Ki is 290 µM.

How did the Ki turn out when `CC(=O)OCCC[N+](C)(C)C` was run?
Its Ki is 190 µM.

Which Ki does the source give for `COC(=O)CC[N+](C)(C)C` here?
Its Ki is 270 µM.

How did the Ki turn out when `CCOC(=O)CC[N+](C)(C)C` was run?
Its Ki is 340 µM.

How did the Ki turn out when `COc1cc(C#CCC[N+](C)(C)C)cc(OC)c1OC` was run?
The Ki was 2 µM.

With `COc1cc(C#CCC[N+]23CCC(CC2)C3)cc(OC)c1OC` as the compound, how does the Ki read?
The Ki was 0.05 µM.

`COc1cc(C#CCC[N+]23CCC(CC2)CC3)cc(OC)c1OC` was tested. Which Ki did it give?
The Ki was 0.09 µM.

Which Ki does the source give for `CC[N+]1(CCC#Cc2cc(OC)c(OC)c(OC)c2)CCCCC1` here?
Its Ki is 0.18 µM.

With `CC[N+]1(CCC#Cc2cc(OC)c(OC)c(OC)c2)CCCC1` as the compound, how does the Ki read?
Its Ki is 0.2 µM.

With `CCCCCCCC[N+]1(CCC#Cc2cc(OC)c(OC)c(OC)c2)CCCCC1` as the compound, how does the Ki read?
The Ki was 0.23 µM.

Which Ki does the source give for `Cc1cc(C)nc(C)c1` here?
The Ki was 107 µM.

`C[N+]12CCC(CC1)C(=O)C2` was tested. Which Ki did it give?
The Ki was 0.521 µM.

Which Ki does the source give for `C[N+]12CCC(CC1)CC2` here?
The Ki was 4.7 µM.

For `C1CN2CCC1CC2`, which Ki is on record?
The Ki was 40.1 µM.

`C[N+]12CCC(O)(CC1)CC2` was tested. Which Ki did it give?
Its Ki is 72.1 µM.

`CC1C(O)C2CC[N+]1(C)CC2` (configuration not stated) was tested. Which Ki did it give?
The Ki was 210 µM.

With `C[n+]1cccc(C(N)=O)c1` as the compound, how does the Ki read?
Its Ki is 361 µM.

How did the Ki turn out when `CC[N+](CC)(CC)CCC#Cc1cc(OC)c(OC)c(OC)c1` was run?
Its Ki is 0.701 µM.

Which Ki does the source give for `CCCCC[N+]1(CCC#Cc2cc(OC)c(OC)c(OC)c2)CCCCC1` here?
The Ki was 0.02 µM.

Which Ki does the source give for `OCC[N+]12CCC(CC1)CC2` here?
Its Ki is 0.64 µM.

Which Ki does the source give for `CCCCCCCCCCCCCCCC[n+]1ccccc1` here?
The Ki was 32.1 µM.

With `Nc1ccncc1N` [AMIFAMPRIDINE] as the compound, how does the Ki read?
Its Ki is 820 µM.

With `C[N+](C)(C)CCO.[Cl-]` [CHOLINE CHLORIDE] as the compound, how does the Ki read?
Its Ki is 0.681 µM.

Which Ki does the source give for `Nc1ccncc1` [DALFAMPRIDINE] here?
The Ki was 481 µM.

With `CNC` [DIMETHYLAMINE] as the compound, how does the Ki read?
Its Ki is 9420 µM.

For `CN(C)CCO` [DIMETHYLAMINOETHANOL], which Ki is on record?
The Ki was 55.7 µM.

For `CN` [METHYLAMINE], which Ki is on record?
The Ki was 35100 µM.

With `CN1CCC[C@H]1c1cccnc1` [NICOTINE] as the compound, how does the Ki read?
The Ki was 520 µM.

How did the Ki turn out when `CCCC[N+](CCCC)(CCCC)CCCC` [TETRABUTYLAMMONIUM] was run?
The Ki was 1050 µM.

For `C[N+](C)(C)C` [TETRAMETHYLAMMONIUM], which Ki is on record?
Its Ki is 30.1 µM.

How did the Ki turn out when `CC[N+](CC)(CC)CC` [TETRYLAMMONIUM] was run?
The Ki was 260 µM.

For `CN(C)C` [TRIMETHYLAMMONIUM], which Ki is on record?
Its Ki is 340 µM.
